# Laboratory results reported in PubChem BioAssay AID1845200 (Molecular Pharmacology Branch, DTP, NCI, 2023).
# System: ASPS-1 complex tumor spheroids, viability
# Assay: Anticancer human tumor ASPS-1 cell line growth inhibition;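 also: spheroids exposed to agents for 7 days after 3 days of growth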;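 as to viability, T/C: 100% = DMSO vehicle treated spheroids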
# Details: for IC50: curve of first compound; for viability, T/C: stronger effect = lower value
# In short: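 Single agents and combinations were tested on spheroids built from tumor cells plus HUVEC and hMSC, at half-log dilutions starting at or near clinical Cmax, else 10 microM; final DMSO 0.25% (v/v).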
# [1] = second compound 1 µM, first compound 0.0316 µM
# [2] = second compound 1 µM, first compound 0.1 µM
# [3] = second compound 1 µM, first compound 0.316 µM
# [4] = second compound 1 µM, first compound 1 µM
# [5] = second compound 1 µM, first compound 3.16 µM
# [6] = second compound 1 µM, first compound 10 µM
# [7] = second compound 3.16 µM, first compound 0.0316 µM
# [8] = second compound 3.16 µM, first compound 0.1 µM
# [9] = second compound 3.16 µM, first compound 0.316 µM
# [10] = second compound 3.16 µM, first compound 1 µM
# [11] = second compound 3.16 µM, first compound 3.16 µM
# [12] = second compound 3.16 µM, first compound 10 µM
# [13] = second compound 10 µM, first compound 0.0316 µM
# [14] = second compound 10 µM, first compound 0.1 µM
# [15] = second compound 10 µM, first compound 0.316 µM
# [16] = second compound 10 µM, first compound 1 µM
# [17] = second compound 10 µM, first compound 3.16 µM
# [18] = second compound 10 µM, first compound 10 µM
# [19] = second compound 31.6 µM, first compound 0.0316 µM
# [20] = second compound 31.6 µM, first compound 0.1 µM
# [21] = second compound 31.6 µM, first compound 0.316 µM
# [22] = second compound 31.6 µM, first compound 1 µM
# [23] = second compound 31.6 µM, first compound 3.16 µM
# [24] = second compound 31.6 µM, first compound 10 µM
# [25] = second compound 100 µM, first compound 0.0316 µM
# [26] = second compound 100 µM, first compound 0.1 µM
# [27] = second compound 100 µM, first compound 0.316 µM
# [28] = second compound 100 µM, first compound 1 µM
# [29] = second compound 100 µM, first compound 3.16 µM
# [30] = second compound 100 µM, first compound 10 µM
smiles,measurement,setting,value
CC1COCCN1c1cc(-c2ccnn2C)c2ccnc(-c3ccn[nH]3)c2n1 (stereo not given) + Cn1nnc2c(C(N)=O)ncn2c1=O,IC50,second compound 1 µM,0.224 µM
same,IC50,second compound 3.16 µM,< 0.0316 µM
same,IC50,second compound 10 µM,< 0.0316 µM
same,IC50,second compound 31.6 µM,< 0.0316 µM
same,IC50,second compound 100 µM,< 0.0316 µM
same,"viability, T/C",[1],72.3%
same,"viability, T/C",[2],59.2%
same,"viability, T/C",[3],46.6%
same,"viability, T/C",[4],41.1%
same,"viability, T/C",[5],46.1%
same,"viability, T/C",[6],43.9%
same,"viability, T/C",[7],38.5%
same,"viability, T/C",[8],44%
same,"viability, T/C",[9],42.2%
same,"viability, T/C",[10],41.6%
same,"viability, T/C",[11],43%
same,"viability, T/C",[12],50.2%
same,"viability, T/C",[13],42.4%
same,"viability, T/C",[14],39.4%
same,"viability, T/C",[15],35.5%
same,"viability, T/C",[16],38.1%
same,"viability, T/C",[17],42.5%
same,"viability, T/C",[18],52.4%
same,"viability, T/C",[19],37.6%
same,"viability, T/C",[20],31.1%
same,"viability, T/C",[21],31.7%
same,"viability, T/C",[22],32.6%
same,"viability, T/C",[23],42.2%
same,"viability, T/C",[24],48.3%
same,"viability, T/C",[25],24.9%
same,"viability, T/C",[26],22.5%
same,"viability, T/C",[27],20.4%
same,"viability, T/C",[28],23.6%
same,"viability, T/C",[29],29.6%
same,"viability, T/C",[30],42%
COc1cc(C)[nH]c(=O)c1CN1CCc2c(Cl)cc(C(OC)C3COC3)c(Cl)c2C1=O (stereo not given) + Cn1nnc2c(C(N)=O)ncn2c1=O,IC50,second compound 1 µM,> 10 µM
same,IC50,second compound 3.16 µM,> 10 µM
same,IC50,second compound 10 µM,> 10 µM
same,IC50,second compound 31.6 µM,> 10 µM
same,IC50,second compound 100 µM,> 10 µM
same,"viability, T/C",[1],107%
same,"viability, T/C",[2],104%
same,"viability, T/C",[3],99.2%
same,"viability, T/C",[4],98.6%
same,"viability, T/C",[5],94.7%
same,"viability, T/C",[6],96.7%
same,"viability, T/C",[7],103%
same,"viability, T/C",[8],101%
same,"viability, T/C",[9],103%
same,"viability, T/C",[10],104%
same,"viability, T/C",[11],103%
same,"viability, T/C",[12],90.8%
same,"viability, T/C",[13],75.3%
same,"viability, T/C",[14],83.9%
same,"viability, T/C",[15],94.9%
same,"viability, T/C",[16],86.8%
same,"viability, T/C",[17],91%
same,"viability, T/C",[18],81.2%
same,"viability, T/C",[19],80.4%
same,"viability, T/C",[20],82.5%
same,"viability, T/C",[21],82.5%
same,"viability, T/C",[22],84.1%
same,"viability, T/C",[23],82.7%
same,"viability, T/C",[24],75.2%
same,"viability, T/C",[25],81.8%
same,"viability, T/C",[26],78.6%
same,"viability, T/C",[27],72.9%
same,"viability, T/C",[28],72.7%
same,"viability, T/C",[29],69%
same,"viability, T/C",[30],70%
COc1ccc([C@@H](O)c2cc(-c3ncnc4cc(N5CCOCC5)ccc34)c(F)cc2Cl)nn1 + Cn1nnc2c(C(N)=O)ncn2c1=O,IC50,second compound 1 µM,9.75 µM
same,IC50,second compound 3.16 µM,> 10 µM
same,IC50,second compound 10 µM,6.72 µM
same,IC50,second compound 31.6 µM,2.61 µM
same,IC50,second compound 100 µM,1.73 µM
same,"viability, T/C",[1],107%
same,"viability, T/C",[2],103%
same,"viability, T/C",[3],106%
same,"viability, T/C",[4],101%
same,"viability, T/C",[5],92%
same,"viability, T/C",[6],48.4%
same,"viability, T/C",[7],103%
same,"viability, T/C",[8],102%
same,"viability, T/C",[9],105%
same,"viability, T/C",[10],99.8%
same,"viability, T/C",[11],75.7%
same,"viability, T/C",[12],53.1%
same,"viability, T/C",[13],92%
same,"viability, T/C",[14],94.9%
same,"viability, T/C",[15],99%
same,"viability, T/C",[16],79.2%
same,"viability, T/C",[17],69.8%
same,"viability, T/C",[18],40.3%
same,"viability, T/C",[19],82.7%
same,"viability, T/C",[20],83.7%
same,"viability, T/C",[21],77.2%
same,"viability, T/C",[22],67.7%
same,"viability, T/C",[23],46.2%
same,"viability, T/C",[24],33.8%
same,"viability, T/C",[25],82.1%
same,"viability, T/C",[26],67.6%
same,"viability, T/C",[27],64.7%
same,"viability, T/C",[28],57.1%
same,"viability, T/C",[29],44.5%
same,"viability, T/C",[30],33.2%
Cc1cc(C)c(CNC(=O)c2cc(-c3ccc(CN4CCOCC4)cc3)cc3c2cnn3C2CCCC2)c(=O)[nH]1 + Cn1nnc2c(C(N)=O)ncn2c1=O,IC50,second compound 1 µM,> 10 µM
same,IC50,second compound 3.16 µM,> 10 µM
same,IC50,second compound 10 µM,> 10 µM
same,IC50,second compound 31.6 µM,> 10 µM
same,IC50,second compound 100 µM,> 10 µM
same,"viability, T/C",[1],94.8%
same,"viability, T/C",[2],95.4%
same,"viability, T/C",[3],94.8%
same,"viability, T/C",[4],92.7%
same,"viability, T/C",[5],93.2%
same,"viability, T/C",[6],86.7%
same,"viability, T/C",[7],102%
same,"viability, T/C",[8],98.1%
same,"viability, T/C",[9],98.8%
same,"viability, T/C",[10],99.6%
same,"viability, T/C",[11],92%
same,"viability, T/C",[12],91.2%
same,"viability, T/C",[13],86.3%
same,"viability, T/C",[14],77.6%
same,"viability, T/C",[15],88%
same,"viability, T/C",[16],89.3%
same,"viability, T/C",[17],82%
same,"viability, T/C",[18],82%
same,"viability, T/C",[19],81.4%
same,"viability, T/C",[20],83.7%
same,"viability, T/C",[21],77.7%
same,"viability, T/C",[22],87.3%
same,"viability, T/C",[23],73.2%
same,"viability, T/C",[24],69.8%
same,"viability, T/C",[25],69%
same,"viability, T/C",[26],67.5%
same,"viability, T/C",[27],73.4%
same,"viability, T/C",[28],71.3%
same,"viability, T/C",[29],61.3%
same,"viability, T/C",[30],55.3%
Cc1sc2c(c1C)C(c1ccc(Cl)cc1)=NC(CC(=O)Nc1ccc(O)cc1)c1nnc(C)n1-2 (stereo not given) + Cn1nnc2c(C(N)=O)ncn2c1=O,IC50,second compound 1 µM,> 3 µM
same,IC50,second compound 3.16 µM,> 3 µM
same,IC50,second compound 10 µM,> 3 µM
same,IC50,second compound 31.6 µM,> 3 µM
same,IC50,second compound 100 µM,> 3 µM
same,"viability, T/C","second compound 1 µM, first compound 0.00949 µM",102%
same,"viability, T/C","second compound 1 µM, first compound 0.03 µM",110%
same,"viability, T/C","second compound 1 µM, first compound 0.0949 µM",114%
same,"viability, T/C","second compound 1 µM, first compound 0.3 µM",99.4%
same,"viability, T/C","second compound 1 µM, first compound 0.949 µM",91.6%
same,"viability, T/C","second compound 1 µM, first compound 3 µM",88.6%
same,"viability, T/C","second compound 3.16 µM, first compound 0.00949 µM",101%
same,"viability, T/C","second compound 3.16 µM, first compound 0.03 µM",108%
same,"viability, T/C","second compound 3.16 µM, first compound 0.0949 µM",111%
same,"viability, T/C","second compound 3.16 µM, first compound 0.3 µM",96.7%
same,"viability, T/C","second compound 3.16 µM, first compound 0.949 µM",94.9%
same,"viability, T/C","second compound 3.16 µM, first compound 3 µM",89.9%
same,"viability, T/C","second compound 10 µM, first compound 0.00949 µM",88.7%
same,"viability, T/C","second compound 10 µM, first compound 0.03 µM",99.6%
same,"viability, T/C","second compound 10 µM, first compound 0.0949 µM",99.1%
same,"viability, T/C","second compound 10 µM, first compound 0.3 µM",100%
same,"viability, T/C","second compound 10 µM, first compound 0.949 µM",97.5%
same,"viability, T/C","second compound 10 µM, first compound 3 µM",83.9%
same,"viability, T/C","second compound 31.6 µM, first compound 0.00949 µM",94.6%
same,"viability, T/C","second compound 31.6 µM, first compound 0.03 µM",92.3%
same,"viability, T/C","second compound 31.6 µM, first compound 0.0949 µM",103%
same,"viability, T/C","second compound 31.6 µM, first compound 0.3 µM",95.6%
same,"viability, T/C","second compound 31.6 µM, first compound 0.949 µM",83.9%
same,"viability, T/C","second compound 31.6 µM, first compound 3 µM",80.3%
same,"viability, T/C","second compound 100 µM, first compound 0.00949 µM",75.9%
same,"viability, T/C","second compound 100 µM, first compound 0.03 µM",82.6%
same,"viability, T/C","second compound 100 µM, first compound 0.0949 µM",84.8%
same,"viability, T/C","second compound 100 µM, first compound 0.3 µM",79%
same,"viability, T/C","second compound 100 µM, first compound 0.949 µM",70.7%
same,"viability, T/C","second compound 100 µM, first compound 3 µM",61.2%
[2H]c1nc(C)nc([2H])c1-c1cc(NC[C@@H](C)c2cccc3c(C(=O)NC)ccnc23)ncn1 + Cn1nnc2c(C(N)=O)ncn2c1=O,IC50,second compound 1 µM,> 10 µM
same,IC50,second compound 3.16 µM,> 10 µM
same,IC50,second compound 10 µM,> 10 µM
same,IC50,second compound 31.6 µM,> 10 µM
same,IC50,second compound 100 µM,> 10 µM
same,"viability, T/C",[1],106%
same,"viability, T/C",[2],100%
same,"viability, T/C",[3],98.3%
same,"viability, T/C",[4],101%
same,"viability, T/C",[5],95.8%
same,"viability, T/C",[6],99.2%
same,"viability, T/C",[7],104%
same,"viability, T/C",[8],104%
same,"viability, T/C",[9],103%
same,"viability, T/C",[10],104%
same,"viability, T/C",[11],101%
same,"viability, T/C",[12],98.3%
same,"viability, T/C",[13],88.4%
same,"viability, T/C",[14],93.2%
same,"viability, T/C",[15],96.4%
same,"viability, T/C",[16],90.1%
same,"viability, T/C",[17],89.5%
same,"viability, T/C",[18],89.7%
same,"viability, T/C",[19],79.8%
same,"viability, T/C",[20],80.2%
same,"viability, T/C",[21],81.1%
same,"viability, T/C",[22],79.7%
same,"viability, T/C",[23],78.3%
same,"viability, T/C",[24],76.4%
same,"viability, T/C",[25],74.2%
same,"viability, T/C",[26],72.5%
same,"viability, T/C",[27],74.5%
same,"viability, T/C",[28],66.5%
same,"viability, T/C",[29],68.4%
same,"viability, T/C",[30],65.8%
